In DBAASP one finds MIC data, which are given here for ten molecules.

What is called MIC is the lowest concentration found to suppress growth.

Some test systems named below: Acinetobacter baumannii; Escherichia coli K88; Escherichia coli K99; Escherichia coli UB1005; Escherichia coli; Klebsiella pneumoniae; Pseudomonas aeruginosa; Bacillus subtilis; Escherichia coli B; Staphylococcus aureus; Bacillus subtilis 168; Candida albicans.
What all share (assay): ≥ marks a high value that may be exact or a test limit, other limits are often not marked, values filed in µg/mL are converted to µM
Experiment [1] relates to Escherichia coli ATCC 25922.
The subject of experiment [2] is Pseudomonas aeruginosa ATCC 27853.
Experiment [3] has as its system Pseudomonas aeruginosa CICC 21625.
Experiment [4] relates to Pseudomonas aeruginosa CICC 21630.
Experiment [5] concerns Pseudomonas aeruginosa PAO1.
Experiment [6] relates to Salmonella enterica subsp. enterica serovar Pullorum C79-13.
For experiment [7], the system named is Salmonella enterica subsp. enterica serovar Typhimurium ATCC 14028.
In experiment [8] the test system is Salmonella enterica subsp. enterica serovar Typhimurium C77-31.
Experiment [9] concerns Candida albicans F7-39/IDE99.
In experiment [10] the test system is Pseudomonas aeruginosa Ps4.
In experiment [11] the test system is Enterococcus faecalis ATCC 29212.
Experiment [12] deals with Pseudomonas aeruginosa H103.
In experiment [13] the test system is Salmonella enterica serovar Typhimurium.
Experiment [14] concerns Staphylococcus aureus ATCC 25923.
In experiment [15] the test system is Staphylococcus epidermidis.

Molecules are shown by their SMILES. Values after ≈ are worked out from the molar mass of the structure shown. Some results are limits rather than exact numbers.

For `CC[C@H](C)[C@H](N)C(=O)N[C@@H](CCCCN)C(=O)N1CCC[C@H]1C(=O)N[C@H](C(=O)N[C@H](C(=O)N[C@@H](CCCCN)C(=O)N1CCC[C@H]1C(=O)N[C@H](C(=O)N[C@H](C(=O)N[C@@H](CCCCN)C(=O)N1CCC[C@H]1C(=O)N[C@H](C(=O)N[C@H](C(=O)N[C@@H](CCCCN)C(=O)N1CCC[C@H]1C(=O)N[C@H](C(=O)N[C@H](C(=O)N[C@@H](CCCCN)C(=O)N1CCC[C@H]1C(=O)N[C@H](C(=O)N[C@H](C(=O)N[C@@H](CCCCN)C(=O)N1CCC[C@H]1C(=O)N[C@H](C(=O)N[C@H](C(=O)N[C@@H](CCCCN)C(=O)N1CCC[C@H]1C(=O)N[C@H](C(N)=O)[C@@H](C)CC)[C@@H](C)CC)[C@@H](C)CC)[C@@H](C)CC)[C@@H](C)CC)[C@@H](C)CC)[C@@H](C)CC)[C@@H](C)CC)[C@@H](C)CC)[C@@H](C)CC)[C@@H](C)CC)[C@@H](C)CC)[C@@H](C)CC` [IKPIIKPIIKPIIKPIIKPIIKPIIKPI], the MIC was determined as 2 µM (≈ 6.36 µg/mL) in the experiment on Acinetobacter baumannii; 8 µM (≈ 25.4 µg/mL) in experiment [1]; 2 µM (≈ 6.36 µg/mL) in the experiment with Escherichia coli K88; 2 µM (≈ 6.36 µg/mL) in the experiment on Escherichia coli K99; 16 µM (≈ 50.9 µg/mL) with Escherichia coli UB1005; 16 µM (≈ 50.9 µg/mL) with Escherichia coli. The MIC in the experiment with Klebsiella pneumoniae is 16 µM (≈ 50.9 µg/mL); in experiment [2] it was > 64 µM; in experiment [3], ≥ 64 µM; in experiment [4], ≥ 64 µM; in [5], > 64 µM; against Pseudomonas aeruginosa, > 64 µM. Moreover, the figures for the MIC in experiment [6], in experiment [7] and in [8] were ≥ 64 µM, 64 µM (≈ 203 µg/mL) and ≥ 64 µM, respectively.
Turning to `CC(C)C[C@H](NC(=O)[C@@H]1CCCN1C(=O)[C@H](CCCCN)NC(=O)[C@H](CC(C)C)NC(=O)[C@H](CC(C)C)NC(=O)[C@@H]1CCCN1C(=O)[C@H](CCCCN)NC(=O)[C@H](CC(C)C)NC(=O)[C@H](CC(C)C)NC(=O)[C@@H]1CCCN1C(=O)[C@H](CCCCN)NC(=O)[C@H](CC(C)C)NC(=O)[C@H](CC(C)C)NC(=O)[C@@H]1CCCN1C(=O)[C@H](CCCCN)NC(=O)[C@@H](N)CC(C)C)C(N)=O` [LKPLLKPLLKPLLKPL], the MIC against Acinetobacter baumannii was 4 µM (≈ 7.29 µg/mL); in experiment [1] it was 16 µM (≈ 29.2 µg/mL); against Escherichia coli K88, 16 µM (≈ 29.2 µg/mL); with Escherichia coli K99 it was 16 µM (≈ 29.2 µg/mL); against Escherichia coli UB1005, 16 µM (≈ 29.2 µg/mL); with Escherichia coli, 32 µM (≈ 58.4 µg/mL). The MIC was > 64 µM in the experiment on Klebsiella pneumoniae; > 64 µM in experiment [2]; ≥ 64 µM in [3]; ≥ 64 µM in [4]; > 64 µM in experiment [5]; > 64 µM against Pseudomonas aeruginosa. The MIC in [6] was ≥ 32 µM; in experiment [7] it was > 64 µM; in experiment [8], ≥ 64 µM.
Regarding `CC[C@H](C)[C@H](NC(=O)[C@H](C)NC(=O)[C@H](C)NC(=O)[C@H](CC(C)C)NC(=O)[C@@H](NC(=O)[C@H](CCCCN)NC(=O)[C@H](CCCN=C(N)N)NC(=O)[C@@H]1CCCN1C(=O)[C@H](CC(C)C)NC(=O)CN)[C@@H](C)CC)C(=O)N[C@@H](C)C(=O)N[C@@H](CCCCN)C(=O)N[C@@H](CCCCN)C(=O)N[C@@H](CCCCN)C(N)=O` [GLPRKILAAIAKKK], the MIC with Bacillus subtilis is ≥ 35 µM; in experiment [9], ≥ 100 µM; in the experiment on Escherichia coli B it was ≥ 100 µM; against Pseudomonas aeruginosa, > 100 µM; against Staphylococcus aureus, > 100 µM.
Take `CC[C@H](C)[C@H](N)C(=O)N[C@@H](Cc1c[nH]c2ccccc12)C(=O)N[C@@H](CCC(N)=O)C(=O)N[C@@H](CCCN=C(N)N)C(=O)N[C@@H](CC(N)=O)C(=O)N[C@H](C(=O)N[C@@H](CCCN=C(N)N)C(=O)N[C@H](C(=O)N[C@@H](CCCN=C(N)N)C(=O)N[C@@H](CCCN=C(N)N)C(N)=O)[C@@H](C)CC)[C@@H](C)CC` [IWQRNIRIRR]: the MIC in [10] is ≥ 177 µM.
On to `CC(C)C[C@H](NC(=O)[C@@H]1CCCN1C(=O)[C@H](CCCN=C(N)N)NC(=O)[C@H](CC(C)C)NC(=O)[C@H](CC(C)C)NC(=O)[C@@H]1CCCN1C(=O)[C@H](CCCN=C(N)N)NC(=O)[C@H](CC(C)C)NC(=O)[C@H](CC(C)C)NC(=O)[C@@H]1CCCN1C(=O)[C@H](CCCN=C(N)N)NC(=O)[C@H](CC(C)C)NC(=O)[C@H](CC(C)C)NC(=O)[C@@H]1CCCN1C(=O)[C@H](CCCN=C(N)N)NC(=O)[C@@H](N)CC(C)C)C(N)=O` [LRPLLRPLLRPLLRPL], for which the MIC was 2 µM (≈ 3.87 µg/mL) against Acinetobacter baumannii; 8 µM (≈ 15.5 µg/mL) in experiment [1]; 8 µM (≈ 15.5 µg/mL) against Escherichia coli K88; ≥ 32 µM with Escherichia coli K99; ≥ 32 µM against Escherichia coli UB1005; 16 µM (≈ 31 µg/mL) in the experiment on Escherichia coli. For the same molecule, the MIC against Klebsiella pneumoniae is > 64 µM; in [2], > 64 µM; in experiment [3], ≥ 64 µM; in experiment [4] it was ≥ 64 µM; in [5], > 64 µM; against Pseudomonas aeruginosa, > 64 µM. Also, the MIC in experiment [6] was 8 µM (≈ 15.5 µg/mL); in [7], 32 µM (≈ 61.9 µg/mL); in experiment [8], ≥ 64 µM.
On to `CC[C@H](C)[C@H](NC(=O)[C@H](CC(N)=O)NC(=O)[C@H](CCCN=C(N)N)NC(=O)[C@H](CCC(N)=O)NC(=O)[C@H](Cc1c[nH]c2ccccc12)NC(=O)[C@@H](NC(=O)[C@@H](N)Cc1ccccc1)[C@@H](C)CC)C(=O)N[C@@H](CCCN=C(N)N)C(=O)N[C@@H](CCCCN)C(=O)N[C@H](C(=O)N[C@@H](CCCN=C(N)N)C(N)=O)C(C)C` [FIWQRNIRKVR], for which the MIC in experiment [10] is ≥ 165 µM.
Still for that read-out and setting: the figure for `CC[C@H](C)[C@H](NC(=O)[C@H](CC(N)=O)NC(=O)[C@H](CCCN=C(N)N)NC(=O)[C@H](CCC(N)=O)NC(=O)[C@H](Cc1c[nH]c2ccccc12)NC(=O)[C@@H](N)CCCN=C(N)N)C(=O)N[C@@H](CCCN=C(N)N)C(=O)N[C@@H](CCCCN)C(=O)N[C@@H](Cc1ccc(O)cc1)C(=O)N[C@@H](CCCN=C(N)N)C(=O)N[C@@H](CCCN=C(N)N)C(N)=O` [RWQRNIRKYRR] is ≥ 153 µM.
On to `CC[C@H](C)[C@H](NC(=O)[C@H](Cc1cnc[nH]1)NC(=O)[C@H](CCCCN)NC(=O)[C@H](CC(C)C)NC(=O)[C@H](CC(C)C)NC(=O)[C@H](CCCCN)NC(=O)[C@H](CCSC)NC(=O)[C@H](Cc1c[nH]c2ccccc12)NC(=O)[C@H](CCCCN)NC(=O)CN)C(=O)N[C@@H](CC(C)C)C(=O)N[C@@H](CCCCN)C(N)=O` [GKWMKLLKHILK], for which the MIC with Bacillus subtilis 168 was determined as 0.8 µM (≈ 1.2 µg/mL); in experiment [9], 4.5 µM (≈ 6.72 µg/mL); against Escherichia coli B, 2.5 µM (≈ 3.73 µg/mL); in the experiment on Pseudomonas aeruginosa, 10.7 µM (≈ 16 µg/mL); against Staphylococcus aureus, 4.5 µM (≈ 6.72 µg/mL).
On to `CC[C@H](C)[C@H](NC(=O)[C@H](CCCN=C(N)N)NC(=O)[C@H](Cc1c[nH]c2ccccc12)NC(=O)CNC(=O)[C@H](CCCN=C(N)N)NC(=O)[C@H](Cc1c[nH]c2ccccc12)NC(=O)[C@@H](N)Cc1ccccc1)C(=O)N[C@@H](CCCN=C(N)N)C(=O)N[C@@H](CCCN=C(N)N)C(N)=O` [FWRGWRIRR], for which the MIC in experiment [10] was ≥ 93.8 µM.
In the case of `CC[C@H](C)[C@H](NC(=O)[C@H](CCCN=C(N)N)NC(=O)[C@@H](NC(=O)[C@H](Cc1c[nH]c2ccccc12)NC(=O)[C@H](CCCN=C(N)N)NC(=O)[C@H](CCCN=C(N)N)NC(=O)[C@@H](N)CC(C)C)[C@@H](C)CC)C(=O)N[C@@H](CCCN=C(N)N)C(=O)N[C@@H](Cc1c[nH]c2ccccc12)C(=O)O` [LRRWIRIRW], the MIC in the experiment with Candida albicans amounted to 10.7 µM (≈ 14.5 µg/mL); in [11], 5.4 µM (≈ 7.32 µg/mL); with Escherichia coli UB1005 it was 0.7 µM (≈ 0.948 µg/mL); in experiment [12], 21.4 µM (≈ 29 µg/mL); in experiment [13], 5.4 µM (≈ 7.32 µg/mL); in experiment [14], 1.3 µM (≈ 1.76 µg/mL). The molecule further returned an MIC in experiment [15] of 0.883 µM (≈ 1.2 µg/mL).
